Reference: patent US9125955B2, “99mTc imaging agents and methods of use” (GENERAL ELECTRIC COMPANY, priority 2012, dated 2015)

Experiment: Ligand stability studies (stock solution at room temperature, LC-MS)
Format: physicochemical
Conditions: stock solution ~300 μg in 4 mL DMSO/H2O [1:1 v/v] (water for other ligands), bench top, LC-MS every 24 h, 3 days
Protocol: Ligand stability studies: A stock solution (prepared by dissolving ˜300 μg of ligand in 4 mL of water; in the cases of Compound 2, 4 mL of DMSO/H2O[1:1 v/v] was used) was stored on bench top at room temperature without extra precautions.

## C/C(=N\O)C(C)(C)NCCN(CCNC(C)(C)/C(C)=N/O)S(=O)(=O)c1ccc(C)cc1 [Compound 2, N,N-bis(2-((E)-3-(hydroxyimino)-2-methylbutan-2-ylamino)ethyl)-4-methylbenzenesulfonamide]
  decomposition of ligand stock solution by LC-MS: no decomposition was observed
